Tests used:
[1] = tested on: 11 human cyclins (D1/2/3, E1/2, A1/2, B1/2/3 and F); experiment: SIMBA, cyclin binding and specificity across the cyclin panel; assay type: cell-based; settings: result in words; for cyclin specificity in SIMBA: 13-mer peptides centered on P0; for cyclin binding in the tiled library SIMBA screen: tiled 16-mer peptides
human cyclin A2 = experiment: Proteomic peptide phage display; assay type: binding; settings: result in words; HD2 library of 16-mer peptides, four selection rounds
human cyclin B1 = experiment: Proteomic peptide phage display; assay type: binding; settings: result in words; HD2 library of 16-mer peptides, four selection rounds

DDIVSKLVFDFVE [DBF4]
cyclin specificity in SIMBA [1]: bound cyclin B1 specifically

HELFQRLDFDNDG [DNAH7]
cyclin specificity in SIMBA [1]: bound cyclin B1 specifically

KAIRKLHFEDE [INSM1]
cyclin specificity in SIMBA [1]: bind to members of all four families
cyclin binding in the tiled library SIMBA screen [1]: cyclin D1-binding motif

PPARRRLRLSVDE [CDT1]
cyclin specificity in SIMBA [1]: bound preferentially to cyclin A2

PRARKRLELGNLG [ORC1]
cyclin specificity in SIMBA [1]: bound preferentially to cyclin A2
cyclin specificity in SIMBA ([1]; listed as ORC1 RxL): cyclin A-specific

QLRRQLSFSED [MICAL3]
cyclin binding in the tiled library SIMBA screen [1]: strong B1-binding motif

SKACRRLFGPVDS [CDKN1A (p21)]
cyclin specificity in SIMBA [1]: bound all cyclin types except B

SLVVGKLSFDSSP [CDC42EP1]
cyclin specificity in SIMBA [1]: bound cyclin B1 specifically

SNARRSLNFGGST [SCAPER]
cyclin specificity in SIMBA [1]: bound preferentially to cyclin A2

VKTKKRLNFDDKV [CENPC]
cyclin specificity in SIMBA [1]: bound preferentially to cyclin A2

VSAVQKLDFSDTMVQQ [PKN2 peptide]
enrichment in ProP-PD selection, cyclin A2 (human cyclin A2): dominated
enrichment in ProP-PD selection, cyclin B1 (human cyclin B1): dominated

YKVKRRLVFGADD [MuHV-1 M97]
cyclin specificity in SIMBA [1]: bind to members of all four families
